This note sets out measurements from PMC7504721, “Targeting the Initiator Protease of the Classical Pathway of Complement Using Fragment-Based Drug Discovery” (Molecules, 2020).

For this assay, the target named is T1, full-length C1r (Homo sapiens, UniProt P00736).
T1 construct: purchased Complement Technology (CompTech)
T1 sequence (P00736 18-463 limits assumed): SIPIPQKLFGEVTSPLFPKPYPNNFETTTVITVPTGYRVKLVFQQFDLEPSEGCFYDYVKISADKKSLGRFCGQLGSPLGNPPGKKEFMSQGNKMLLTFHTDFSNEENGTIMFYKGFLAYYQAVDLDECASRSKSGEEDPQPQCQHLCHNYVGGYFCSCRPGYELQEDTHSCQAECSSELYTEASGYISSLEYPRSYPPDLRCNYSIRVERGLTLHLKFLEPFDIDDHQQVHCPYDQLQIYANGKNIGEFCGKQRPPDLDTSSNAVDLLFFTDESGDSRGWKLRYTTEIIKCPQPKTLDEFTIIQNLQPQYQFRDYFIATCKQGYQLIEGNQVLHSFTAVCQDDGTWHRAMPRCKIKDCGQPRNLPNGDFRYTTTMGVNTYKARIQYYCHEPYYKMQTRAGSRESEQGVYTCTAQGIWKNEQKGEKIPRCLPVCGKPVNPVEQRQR
T1 sequence (P00736 464-705 limits assumed): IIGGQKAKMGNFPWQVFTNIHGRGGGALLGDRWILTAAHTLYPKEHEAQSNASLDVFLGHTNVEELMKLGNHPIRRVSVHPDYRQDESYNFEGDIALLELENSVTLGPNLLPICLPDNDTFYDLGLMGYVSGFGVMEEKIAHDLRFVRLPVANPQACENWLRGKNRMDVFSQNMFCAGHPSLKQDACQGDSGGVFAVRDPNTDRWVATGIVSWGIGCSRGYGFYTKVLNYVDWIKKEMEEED
Nature of the assay: SPR domain mapping, full-length C1r surface. The assay is classed as binding. As to conditions: duplicate. An excerpt: Figure 5 Selectivity and mechanistic analysis of CMP-1611 and CMP-1696. (A) Chemical structure of CMP-1611. (B) Chemical structure of CMP-1696. (C) Dose-dependent inhibition by CMP-1611 and CMP-1696 in a classical pathway-specific ELISA. Data were fit with GraphPad Prism using non-linear regression with a log(inhibitor) vs. response model. […] The CMP-778 inhibitory response could not be fit to a dose-response inhibition model. (D) Complement pathway selectivity of CMP-1611 and CMP-1696. Compounds were assessed for their ability to inhibit activation of complement via the lectin and alternative pathways using single doses of 500 μM compound in triplicate. To ensure only lectin pathway activation, 2% (v/v) C1q-depleted serum (CompTech) was used and mannan was used as the activator. To match serum sources and amounts for this assay, the classical pathway assays were repeated here using serum from CompTech at 2% (v/v) final concentration. Alternative pathway activation assays were performed using 20% (v/v) serum (CompTech), alternative pathway buffers, and C3b detection (see Methods and Materials for details). […] We then injected each compound simultaneously over the three surfaces at 500 μM and measured binding responses. […] All sensorgrams were reference and blank subtracted and analyzed using T200 Evaluation Software (GE Healthcare, Chicago, IL, USA).

Take `COCc1nc(-c2ccc(OC3CNC3)cc2)no1` [CMP-1696]: where the note is “500 µM compound”, the “relative SPR binding response, full-length C1r” value is “high binding”.
Take `N=C(N)c1ccc2cc(OC(=O)c3ccc(N=C(N)N)cc3)ccc2c1` [Futhan, reference compound]: under “10 µM Futhan”, the “relative SPR binding response, full-length C1r” value was “bound C1r and C1r-CCP2-SP similarly”.
